The conditions of data set [1]: cited from earlier work.
The subject of a further data set is patients with CHF. The conditions noted are these: cited from earlier work.
Data set [2] concerns asthmatic mice. As to the kind of experiment: Airway resistance (Raw) response to methacholine in murine model of asthma (forced oscillation). The class given is in vivo, Balb/cJ mice. To be noted: for airway hyperresponsiveness (Raw): chronic treatment 7 days, 20 mg/kg (metoprolol 3× daily s.c.; timolol in chow). As for the experimental part:
Balb/cJ mice aged 6 weeks (Jackson Animal Laboratory, Bar Harbor, Me.) were housed under specific pathogen-free conditions and fed a chicken ovalbumin-free diet. The Animal Research Ethics Boards of both the University of Houston and the Baylor College of Medicine approved all experiments reported here. […] Mice were sensitized with subcutaneous injection of 25 μg of ovalbumin adsorbed to aluminum hydroxide on protocol days 2, 9, and 16. Subsequently, mice were given 50 μL of saline solution containing 25 μg of ovalbumin intranasally, on a daily basis, from protocol days 23 through 27. A group of ovalbumin-sensitized saline-challenged mice serves as controls for systemic sensitization and respiratory challenges with ovalbumin. Prior to intranasal administrations, mice were sedated with halothane vapor.
To examine the effects of duration of β-adrenergic ligand therapy on the phenotype of the murine model of asthma, the experimental drugs were administered either acutely or chronically to different groups of asthmatic mice.
Asthmatic mice on acute therapy were given a single intravenous bolus infusion of either β-adrenergic drug or normal saline on protocol day 28, 15 minutes before airway responsiveness to methacholine was determined. […] […] […] These concentrations were chosen based on those producing therapeutic effects in mice in previously published studies. The non-asthmatic mice were fed normal chow.
On protocol day 28, mice were anesthetized, tracheotomized, and connected to a computer-controlled small animal ventilator (Flexivent, Scientific Respiratory Equipment, Inc., Montreal, Canada). Airway resistance (Raw) was measured using the forced oscillation technique. The cellular composition of bronchoalveolar lavage fluid (BALF) was also determined.
To induce airway constriction, a solution containing 150 μg/mL of acetyl-α-methylcholine chloride (methacholine) (Sigma Chemical, St. Louis, Mo.) was infused intravenously at constant rates using a syringe infusion pump (Raze Scientific Instruments, Stanford, Conn.). […] Each methacholine dose was administered for 3 to 5 minutes, during which data were sampled at 1-minute intervals and then averaged.
The complex input impedance of the respiratory system was computed and the value of the real part of respiratory system impedance at 19.75 Hz was taken to reflect the magnitude of airway resistance (Raw). To examine the degree of airway responsiveness of each animal, the values for Raw as a function of methacholine doses were plotted. The largest value for Raw achieved in response to methacholine stimulation was referred to as Rawpeak. For mice that achieved a plateau in the methacholine dose-Raw response curve, the ED50 was calculated by linear interpolation using the GraphPad Prism4 (GraphPad Software, Inc.). […] The Bonferroni test was used to examine the statistical differences between experimental groups. The effects of acute drug treatments on baseline respiratory system mechanics were assessed using a two-tailed paired t-test. A value of P<0.05 was considered significant.
For these experiments, salbutamol was used for chronic administration at 0.5 mg/kg/day with a minipump and for acute administration at 0.15 mg/kg by i.v. bolus 15 minutes prior to challenge. Alprenolol was used at a high dose of 7200 ppm in chow or at a low dose of 720 ppm in chow. Carvedilol was used at a high dose of 2400 ppm in chow or at a low dose of 720 ppm in chow.

For data set [3], the system named is asthmatic mice. In words: BALF cell number and type (Example 11). The class given is in vivo. The conditions noted are these: vs nontreated asthmatic mice. The source says:
The same mice as described in Example 1 underwent bronchoalveolar lavage (BAL) to determine the total number and type of immune system cells in the lung. BAL Fluid (BALF) was irrigated and collected from the lungs of mice as previously described (Evans K L, Bond R A, Corry […]. Frequency dependence of respiratory system mechanics during induced constriction in a murine model of asthma. J Appl Physiol. 2003 January;94(1):245-52). […] The number of neutrophils was increased in nontreated asthmatic mice compared to mice that served as controls for chronic beta-blocker treatments. In comparison to their notable effects on airway responsiveness, the β-AR ligands tested had very little effect on BALF cellularity. […] FIG. 12 has 3 panels of cell number and type of cells from the bronchoalveolar lavage fluid of asthmatic mice treated acutely or chronically with beta adrenergic ligands. Cells were identified as eosinophils (black bars), macrophages (hatched bars), neutrophils (grey bars), and lymphocytes (white bars) by standard morphologic criteria. At least 200 cells were counted per cytospin preparation, and the absolute number of each cell type was calculated based on the volume of fluid recovered from the lavage. […] Data are expressed as mean ±SEM and are representative of 6-25 animals per group. #P<0.05 compared to NTX, *P<0.05 compared to control (ANOVA).

For data set [4], the system named is β2-adrenergic receptor. The format is binding, mice. The conditions noted are these: 2 days of administration. As for the experimental part: (§1) β2-adrenergic receptor numbers were measured in asthmatic mice as follows. […] Mice were sacrificed and lung membranes were isolated as follows. Frozen lung tissue was homogenized in an ice-cold buffer containing 0.32 M sucrose and 25 mM Tris (pH 7.4) using a polytron (Pro 200, Pro Scientific, Inc.). The homogenate was centrifuged at 1000×g for 10 min at 4° C. The resulting supernatant was centrifuged at 40,000×g for 20 min at 4° C. The pellet was suspended in an ice-cold 25 mM Tris-HCl buffer (pH 7.4) and centrifuged at 40,000×g for 20 min at 4° C. The final pellet was suspended in 200 μL of 25 mM Tris-HCl (pH 7.4); membrane protein concentration was determined by BCA protein assay kit. […] The incubation was done at 37° C. for 2 h and terminated by rapid vacuum filtration through glass fiber filters. The filters were washed three times with 250 μL of cold wash buffer (25 mM Tris-HCl, pH 7.4) and the radioactivity determined in a counter. […] Receptor densities are expressed as femtomoles of sites per milligram of protein. Bmax is determined by nonlinear regression of the saturation binding curves.

Data set [5] addresses β2-adrenergic receptor (Mus musculus, UniProt P18762). The class given is binding, mice. The conditions noted are these: for Bmax: 15 Minutes drug treatment; for Bmax / βmax: lung membranes of asthmatic mice, mean±SEM; for βmax: 28 Days drug treatment; for level of the β2-adrenergic receptor: chronic treatment, asthmatic mice. As for the experimental part:
as §1

Data set [6] has as its system asthmatic mice. In words: Total number of immune cells in BALF (Example 12). The format is in vivo. To be noted: chronic treatment; compared to NS/NC mice. As to the method:
Bronchial alveolar lavage fluid was collected from treated animals and total immune cell number was determined and the total number of eosinophils was also determined. Additionally, the interleukin 10 (IL-10) levels were determined in the mice.

Data set [7] has as its system tracheas from asthmatic mice. To be noted: chronic treatment of asthmatic mice, excised tracheas; cited from earlier work.
The conditions of data set [8]: chronic use; cited from earlier work.
The subject of the next data set is β-adrenergic receptor. The conditions noted are these: U.S. Pat. No. 6,284,800; cited from earlier work.
Data set [9] relates to antigen-induced bronchoconstriction. To be noted: acute administration; cited from earlier work.
Setting [10] is: asthmatic mice, acute: single intravenous bolus 15 minutes before methacholine.
Where [11] appears, read: asthmatic mice, chronic administration for 28 days.

The structures appear in SMILES notation. Entries after “also recorded” stand apart in the source; their conditions may differ. Where two headings read alike, the source gives them in different places.

β2-adrenergic receptor (Mus musculus, UniProt P18762), sequence (P18762 whole entry): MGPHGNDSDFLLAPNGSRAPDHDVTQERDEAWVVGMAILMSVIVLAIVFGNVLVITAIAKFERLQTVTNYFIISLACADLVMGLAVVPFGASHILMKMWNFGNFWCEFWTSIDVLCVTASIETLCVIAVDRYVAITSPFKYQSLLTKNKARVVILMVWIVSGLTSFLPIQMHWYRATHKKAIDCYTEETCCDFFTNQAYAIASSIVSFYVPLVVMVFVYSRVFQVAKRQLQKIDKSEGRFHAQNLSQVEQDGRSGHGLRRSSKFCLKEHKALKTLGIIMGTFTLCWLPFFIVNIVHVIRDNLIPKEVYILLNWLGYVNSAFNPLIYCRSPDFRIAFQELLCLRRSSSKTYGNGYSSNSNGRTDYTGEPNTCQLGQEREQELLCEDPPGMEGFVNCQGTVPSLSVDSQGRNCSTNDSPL

Turning to `CCCC1O[C@@H]2C[C@H]3[C@@H]4CCC5=CC(=O)C=C[C@]5(C)[C@H]4[C@@H](O)C[C@]3(C)[C@]2(C(=O)CO)O1` (stereo partly shown) [budesonide], in [1] (in vivo), the “plasma clearance relative to average clearance of prednisolone” value is listed as “about 10 fold” and the “systemic availability of the swallowed fraction” value is on record as 10.7±4.3%. Besides, the “plasma clearance of the 2 enantiomers, children with asthma vs healthy adults” value in data set [1] (per kilogram of bodyweight, 6 children, 11 adults) is listed as “about 50%”.

As to `CC(C)(Cc1c[nH]c2ccccc12)NCC(O)COc1ccccc1C#N` (stereo not shown) [Bucindolol, bucindolol], the “clinical outcome in congestive heart failure” value in the data set on patients with CHF is recorded as “failed to demonstrate any benefit over placebo”.

For `COCCc1ccc(OCC(O)CNC(C)C)cc1` (stereo not shown) [metoprolol], in the data set with asthmatic mice [2], the “airway hyperresponsiveness (Raw)” value is “effective in reducing airway hyperresponsiveness”. For the same compound, in the data set on patients with CHF, the “clinical outcome in congestive heart failure” value was “significant mortality reduction”.

As for `CC(C)(C)NCC(O)c1ccc(O)c(CO)c1` (stereo not shown) [salbutamol], the results for the BALF cellularity entry in the data set with asthmatic mice [3] (acute treatment (15 minutes)) and in the data set with asthmatic mice [3] (chronic treatment (28 days)) were “did not alter the cellular composition of BALF” and “significant increase in the number of eosinophils”, respectively. Further, the “bioavailability of inhaled drug” value in data set [1] (10 patients with cystic fibrosis vs healthy adults) was “greater than that in healthy adults”. The “Increased β2AR density” value in the data set with β2-adrenergic receptor [4] is “no”; at β2-adrenergic receptor [5] (15 minutes of administration), “yes”; on β2-adrenergic receptor [5] (28 days of administration), “no”. Further, at β2-adrenergic receptor [5], the Bmax is 256.5 ± 29.24 femtomoles of sites per milligram of protein. Further, the βmax on β2-adrenergic receptor [5] is given as 97.0 ± 23.02 femtomoles of sites per milligram of protein. Besides, on β2-adrenergic receptor [5], the “level of the β2-adrenergic receptor” value is given as “slight decrease”. Further, the “Decreased Raw” value in the data set on asthmatic mice [2] (15 minutes of administration) was “yes”; in the data set with asthmatic mice [2] (2 days of administration) it was “no”; with asthmatic mice [2] (28 days of administration) it was “no”. The “airway responsiveness to methacholine provocation (Raw)” value is “reduced the level of airway responsiveness to methacholine provocation and the level of airway resistance” in the data set with asthmatic mice [2] (setting [10]); “no protection was observed” in the data set with asthmatic mice [2] (setting [11]). Further, in the data set on asthmatic mice [6], the “total number of immune cells in BALF” value is given as “statistically significant at P<0.05 total higher numbers of immune cells”.

Consider `Cc1ccc(OCC(O)C(C)NC(C)C)c2c1CCC2` (stereo not shown) [ICI-118,551], for which the “effectiveness on tracheal contraction in response to methacholine (rank)” value in data set [7] is reported as “then ICI-118,551”.

Take `C[C@@H]1C[C@H]2[C@@H]3C[C@H](F)C4=CC(=O)C=C[C@]4(C)[C@@]3(F)[C@@H](O)C[C@]2(C)[C@@]1(O)C(=O)SCF` [fluticasone]: in [1] (in vivo), the “first-pass hepatic metabolism of systemically absorbed drug” value was “almost complete”.

Regarding `C=CCc1ccccc1OCC(O)CNC(C)C` (stereo not shown) [alprenolol], the BALF cellularity entry is on record as “significant increase in the number of macrophages” in the data set with asthmatic mice [3] (acute treatment (15 minutes)) and “no changes in BALF cellularity were observed” with asthmatic mice [3] (chronic treatment (28 days)). Also, the “Increased β2AR density” value is given as “no” with β2-adrenergic receptor [4], “yes” at β2-adrenergic receptor [5] (15 minutes of administration) and “no” on β2-adrenergic receptor [5] (28 days of administration). The Bmax at β2-adrenergic receptor [5] was 299.5 ± 12.19 femtomoles of sites per milligram of protein. Further, the βmax on β2-adrenergic receptor [5] is recorded as 179.2 ± 53.05 femtomoles of sites per milligram of protein. In addition, the “level of the β2-adrenergic receptor” value at β2-adrenergic receptor [5] is on record as “slight decrease”. Also, the “Decreased Raw” value in the data set with asthmatic mice [2] (15 minutes of administration) was “yes”; with asthmatic mice [2] (2 days of administration), “no”; in the data set with asthmatic mice [2] (28 days of administration) it was “no”. In addition, the entries for the “airway responsiveness to methacholine provocation (Raw)” value in the data set with asthmatic mice [2] (setting [10]) and in the data set on asthmatic mice [2] (setting [11]) were “airway responsiveness was diminished” and “does not reduce airway hyperresponsiveness; also recorded: without any activity; also recorded: provides no benefit upon chronic administration”, respectively. Moreover, the “methacholine doses at which Raw was significantly decreased vs non-treated (P<0.05)” value in the data set on asthmatic mice [2] (asthmatic mice, single intravenous bolus) was no less than 408 µg/kg/min. The “effectiveness on tracheal contraction in response to methacholine (rank)” value in [7] is “The most effective compound”.

As for `OCc1cc(C(O)CNCCCCCCOCCCCc2ccccc2)ccc1O` (stereo not shown) [salmeterol], in data set [1] (in vivo), the “time for majority of a dose to be eliminated in the feces” value was no more than 72 h. In addition, in data set [8], the trial outcome is given as “stopped due to increased death rates”.

In the case of `CC(C)(C)NC[C@H](O)COc1nsnc1N1CCOCC1` [timolol], the “airway hyperresponsiveness (Raw)” value in the data set with asthmatic mice [2] is listed as “effective in reducing airway hyperresponsiveness”.

`CC(C)NC[C@@H](O)COc1cccc2ccccc12` [D-propranolol]: the “activity with respect to β-adrenergic receptors” value in the data set on β-adrenergic receptor was “inactive”. For the same compound, the “antigen-induced bronchoconstriction and airway hyperresponsiveness” value in [9] was “beneficial in inhibiting antigen-induced bronchoconstriction and reducing airway hyperresponsiveness”.

Take `CC(C)NC[C@H](O)COc1cccc2ccccc12` [L-form of propranolol, propranolol]: the specific lung resistance result in [9] was “increased specific lung resistance”.

`CC(C)(C)NCC(O)c1cc(O)cc(O)c1` (stereo not shown) [terbutaline]: the “increase in bioavailability from oral component” value in data set [1] (from an MDI) is reported as 6.7%. Also, the “absorption through the lung” value in [1] (healthy smokers vs healthy nonsmokers) is given as “absorbed through the lung more rapidly in healthy smokers than in healthy nonsmokers”.
